Results on ten compounds are retold here after US20250145631A1, “HETEROCYCLIC COMPOUND ACTING ON G12D MUTANT KRAS PROTEIN” (Astellas Pharma Inc., priority 2022, published 2025).

Where a name gives a salt, the structure may show the parent alone.

What all share (format): cell-based
Assay [1] relates to human G12D mutant KRAS-positive pancreatic cancer line AsPC-1. Briefly: Non-anchorage-dependent cell growth inhibitory effect, spheroid 3D culture (Test Example 3). The settings on record: ASPC1, 144 h, AsPC-1 spheroid 3D culture, 6 days, CellTiter Glo 2.0, read-out: IC50 (non-anchorage-dependent cell growth inhibition). As for the experimental part:
The non-anchorage-dependent cell growth inhibitory effect of test compounds was evaluated by spheroid 3D cell culture.
AsPC-1 cells were seeded on low-cell-adhesive round bottom 384-well plates (PrimeSurface: from Sumitomo Bakelite) at 20 μL (or […])/well to give 5×10^2 cells per well. As for the cell culture conditions, RPMI 1640 medium containing 10% fetal bovine serum was used in the presence of 5% CO2 at 37° C.
The next day, the test compounds (10 points or 6 points having final concentrations in the range of 10 μM to 0.3 nM) and DMSO, which was the solvent for the test compounds, as a negative control were diluted 500-fold (or 100-fold) with a fresh medium and were added at 20 μL (or […]) per well. After culturing in the presence of 5% C02 at 37° C. for 6 days, CellTiter Glo 2.0 (from Promega) was added at 20 μL per well. After stirring with a plate mixer (from FINEPCR) at normal temperature for 1 hour, the luminescent signals were measured with ARVO X3 (from PerkinElmer).
With the signaling value in treatment with DMSO taken as 100% and with the signaling value in the medium alone without cells taken as 0%, the 50% inhibitory concentration values (IC50) were calculated by Sigmoid-Emax nonlinear regression analysis. The calculated 50% inhibition represents the inhibition at the highest concentration evaluated (10 μM) for a compound that exceeds the concentration in the evaluation range.
(§1) In the tables presented below, Ex represents Example No. The IC50 of Ex. 13, Ex. 15, and Ex. 16 were calculated using the molecular weights as tetrahydrochloride, and the IC50 of Ex. 14 was calculated using the molecular weight as trihydrochloride.
For orientation: ATP-based viability assays read luminescence as a measure of living cells.

Assay [2] relates to phosphorylation of ERK (Thr202/Tyr204). As to the kind of experiment: ERK phosphorylation inhibitory effect by Cell ELISA in AsPC-1 cells (Test Example 2). The settings on record: Homo sapiens, ASPC1, overnight treatment, Cell ELISA, read-out: IC50 (ERK phosphorylation inhibition). As for the experimental part: The ERK phosphorylation inhibitory effect of test compounds was evaluated by measuring phosphorylation of threonine 202 (Thr202) and tyrosine 204 (Tyr204) of ERK located downstream of the KRAS signal by Cell ELISA.
AsPC-1 cells were seeded on 384-well plates at 20 µL/well to give 2.0×10^4 cells per well. As for the cell culture conditions, RPMI 1640 medium containing 10% fetal bovine serum was used in the presence of 5% CO2 at 37° C.
The next day, the test compounds (10 points having final concentrations in the range of 10 μM to 0.3 nM), trametinib (MEK inhibitor) of a final concentration of […] as positive control and DMSO, which was the solvent for the test compounds, as negative control were diluted 500-fold with a fresh medium and were added at 20 μL per well. The cells were cultured overnight. After culturing, 30% glyoxal solution (40% glyoxal [from Nacalai Tesque]was diluted with PBS) was quickly added at 30 μL per well, and the plates were allowed to stand for 120 minutes at room temperature to thus immobilize the cells. Then, the plates were centrifuged to remove the supernatant (using a centrifugal dehydrator machine, the supernatant was removed by the same method hereinafter), and 0.10% Triton X-100-containing PBS was added at 20 μL per well. After allowing to stand for 10 minutes at room temperature, the supernatant was removed, and the same operation was further repeated. Next, 0.5% SDS-containing PBS was added at 20 μL per well, and after allowing to stand at room temperature for 30 minutes, the supernatant was removed. Subsequently, blocking solution (Intercept Blocking Buffer) was added at 20 μL per well, and the plates were allowed to stand for 1 hour at room temperature. The supernatant was removed, and an ERK (Thr202/Tyr204) phosphorylation antibody (Phospho-p44/42 MAPK (Erk 1/2) (Thr202/Tyr204) (D13.14.4E) XP Rabbit mAb; from Cell Signaling Technology) diluted 2,500-fold with blocking solution was added at 15 μL per well as a primary antibody. The plates were allowed to stand at 4° C. overnight.
The next day, the supernatant was removed. 0.05% Tween-20 (from Thermo Fisher Scientific)-containing PBS was added at 50 μL per well, and the supernatant was removed to thus wash each well. The washing was performed three times in total. After washing, Goat anti-Rabbit IgG H&L (IRDye 800CW) diluted 1,000-fold with blocking solution was added at 15 μL per well as a secondary antibody, and the plates were allowed to stand for 1 hour at room temperature. The supernatant was removed, and each well was washed three times with 0.05% Tween-20-containing PBS in the same manner as after the primary antibody reaction. After removing the supernatant, the plates were dried with air at room temperature for 3 hours or more, and the 800-nm fluorescent signals were measured with Aerius.
With the signaling value at the time of addition of DMSO taken as 100% and with the signaling value at the time of addition of […] trametinib taken as 0%, the 50% inhibitory concentration values (IC50) were calculated by Sigmoid-Emax nonlinear regression analysis. The calculated 50% inhibition represents the inhibition at the highest concentration evaluated (10 μM) for a compound that exceeds the concentration in the evaluation range.
as §1

Another assay deals with T1, KRAS G12D (Homo sapiens, UniProt P01116, G12D).
T1 construct: host or cells: AsPC-1 (human pancreatic cancer line)
T1 sequence (P01116 1-188 isoform P01116-2 G12D): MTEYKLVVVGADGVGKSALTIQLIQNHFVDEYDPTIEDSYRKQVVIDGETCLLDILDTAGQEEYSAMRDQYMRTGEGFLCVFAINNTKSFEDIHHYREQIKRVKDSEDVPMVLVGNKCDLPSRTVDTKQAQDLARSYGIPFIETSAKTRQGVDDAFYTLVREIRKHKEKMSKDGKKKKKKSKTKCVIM
Briefly: KRAS degradation activity by Cell ELISA in AsPC-1 cells (Test Example 1). The conditions noted are these: Cell ELISA; for Dmax: ASPC1, overnight treatment, read-out: Dmax (degradation rate at the concentration showing highest degradation); for DC50: overnight treatment, read-out: DC50 (50% degradation concentration of KRAS). On the procedure:
The KRAS degradation activity of test compounds was evaluated by measuring the expression levels of KRAS G12D by Cell ELISA.
AsPC-1 cells were seeded at 20 μL per well on 384-well plates (from Greiner bio-one) to give 2.0×10^4 cells per well. As for the cell culture conditions, RPMI 1640 (from Sigma-Aldrich) medium containing 10% fetal bovine serum (from Cytiva) was used in the presence of 5% CO2 at 37° C.
The next day, the test compounds (10 points having final concentrations in the range of 10 μM to 0.3 nM) and DMSO (from FUJIFILM Wako Pure Chemical Corporation), which was the solvent for the test compounds, as a negative control were diluted 500-fold with a fresh medium and were added at 20 μL per well. The cells were cultured overnight. The next day, the culture supernatant was removed, and 4% paraformaldehyde phosphate buffer (from FUJIFILM Wako Pure Chemical Corporation) was added at 20 μL per well. The plates were allowed to stand for 30 minutes at room temperature to thus immobilize the cells. Then, the supernatant was removed, and 0.1% Triton X-100 (from Amersham Biosciences)-containing Phosphate buffered saline (PBS; from FUJIFILM Wako Pure Chemical Corporation) was added at 20 μL per well. After allowing to stand for 10 minutes at room temperature, the supernatant was removed. PBS was added at 25 μL per well, and the supernatant was removed to thus wash each well. The washing was performed twice in total. Next, the supernatant was removed, and 0.5% sodium dodecyl sulfate (SDS; from Invitrogen)-containing PBS was added at 20 μL per well. After allowing to stand at room temperature for 10 minutes, the supernatant was removed by a centrifugal operation (using a centrifugal dehydrator machine, the supernatant was removed by the same method hereinafter). PBS was added at 25 μL per well, and the supernatant was removed to thus wash each well. The washing was performed twice in total. The supernatant was removed, and blocking solution (Intercept Blocking Buffer; from Li—COR Biosciences) was added at 20 μL per well. After allowing to stand for 30 minutes at room temperature, the supernatant was removed, and a solution obtained by diluting anti-β-actin antibody (Anti-beta Actin antibody [mAbcam 8226]-Loading Control; from abcam) 1,000-fold with blocking solution and a solution obtained by diluting anti-Ras (G12D Mutant Specific) antibody (Ras (G12D Mutant Specific) (D8H7) Rabbit mAb #14429; from Cell Signaling Technology) and anti-β-actin antibody (from abcam) 1,000-fold with blocking solution were respectively added to positive control wells and the other wells at 15 μL per well as a primary antibody. The plates were allowed to stand overnight at 4° C.
The next day, the supernatant was removed. PBS was added at 25 μL per well, and the supernatant was removed to thus wash each well. The washing was performed twice in total. The supernatant was removed, and a solution obtained by diluting Donkey anti-Mouse IgG H&L (IRDye 680RD) (from Li—COR Biosciences) and Goat anti-Rabbit IgG H&L (IRDye 800CW) (from Li—COR Biosciences) 1,000-fold with blocking solution was added at 15 μL per well as a secondary antibody. A solution obtained by diluting Donkey anti-Mouse IgG H&L (IRDye 680RD) (from Li—COR Biosciences) 1,000-fold with blocking solution was added to a positive control well as a secondary antibody. After allowing to stand for 1 hour at room temperature, the supernatant was removed. PBS was added at […], and the supernatant was removed to thus wash each well. The washing was performed twice in total. After removing the supernatant, the plates were dried with air at room temperature for 2 hours or more, and the 700 nm and 800 nm fluorescent signals were measured with Aerius (from Li—COR Biosciences). […]
On the technique in general: ELISA stands for enzyme-linked immunosorbent assay.

For orientation: IC50 means the midpoint of a concentration-inhibition curve. Consider `Cc1c(F)cc2[nH]ncc2c1-c1c(C2CC2)cc2c(N3C[C@@H]4C[C@H]3CN4)nc(OC3CCOCC3)nc2c1OCc1ccc(C(=O)N2CCN(Cc3ccc4c(c3)n(C)c(=O)n4N3CCC(=O)NC3=O)C[C@@H]2C)cc1` (atropisomer, axis not shown) [Example 47], for which the IC50 in assay [1] turned out to be 448 nM.

Regarding `Cc1c(F)cc2[nH]ncc2c1-c1c(C2CC2)cc2c(N3C[C@@H]4C[C@H]3CN4)nc(OC3CCOCC3)nc2c1OCc1ccc(C(=O)N2CCN(Cc3ccc4c(N5CCC(=O)NC5=O)nn(C)c4c3)C[C@@H]2C)cc1` (atropisomer, axis not shown; (M)) [Example 16, 1-(6-{[(3S)-4-{4-[({(7M)-6-cyclopropyl-4-[(1S,4S)-2,5-diazabicyclo[2.2.1]heptan-2-yl]-7-(6-fluoro-5-methyl-1H-indazol-4-yl)-2-[(oxan-4-yl)oxy]quinazolin-8-yl}oxy)methyl]benzoyl}-3-methylpiperazin-1-yl]methyl}-1-methyl-1H-indazol-3-yl)-1,3-diazinane-2,4-dione n hydrochloride], the IC50 in assay [2] amounted to 158 nM. In addition, on KRAS G12D, the Dmax turned out to be 86% and the DC50 amounted to 71 nM. Also, the IC50 in assay [1] was found to be 73 nM.

As for `Cc1c(F)cc2[nH]ncc2c1-c1c(C2CC2)cc2c(N3C[C@@H]4C[C@H]3CN4)nc(OC3CCOCC3)nc2c1OCc1ccc(C(=O)N2CCN(Cc3ccc4c(c3)oc(=O)n4C3CCC(=O)NC3=O)CC2)cc1` (stereo partly shown) [Example 3], the results for the half-maximal inhibitory concentration (IC50) in assay [2] and in assay [1] were 94 nM and 120 nM, respectively. The Dmax on KRAS G12D is 83%. Moreover, the DC50 at KRAS G12D was 53 nM.

Regarding `Cc1c(F)cc2[nH]ncc2c1-c1c(C2CC2)nc2c(N3C[C@@H]4C[C@H]3CN4)nc(OC3CCOCC3)nc2c1OCc1ccc(C(=O)N2CCN(Cc3ccc4c(c3)n(C)c(=O)n4C3CCC(=O)NC3=O)C[C@@H]2C)cc1` (stereo partly shown) [Example 48], in assay [1], the IC50 came to 161 nM.

`Cc1c(F)cc2[nH]ncc2c1-c1c(C2CC2)cc2c(N3C[C@@H]4C[C@H]3CN4)nc(OC3CCOCC3)nc2c1OCc1ccc(C(=O)N2CCN(Cc3ccc4c(N5CCC(=O)NC5=O)nn(C)c4c3)CC2)cc1` (atropisomer, axis not shown) [Example 13]: the IC50 in assay [2] turned out to be 608 nM. Also, at KRAS G12D, the Dmax was 66% and the DC50 was 408 nM. Moreover, the IC50 in assay [1] worked out at 1220 nM.

As for `Cc1c(F)cc2[nH]ncc2c1-c1c(C2CC2)cc2c(N3C[C@@H]4C[C@H]3CN4)nc(OC3CCOCC3)nc2c1OCc1ccc(C(=O)N2CCC3(CN(Cc4ccc5c(N6CCC(=O)NC6=O)nn(C)c5c4)C3)C2)cc1` (atropisomer, axis not shown) [Example 19], the values for the IC50 in assay [2] and in assay [1] were 555 nM and 242 nM, respectively. In addition, the Dmax on KRAS G12D was 93%. Also, the DC50 at KRAS G12D was determined as 278 nM.

In the case of `Cc1c(F)cc2[nH]ncc2c1-c1c(C2CC2)cc2c(N3C[C@@H]4C[C@H]3CN4)nc(OC3CCOCC3)nc2c1OCc1ccc(C(=O)N2CCN(Cc3ccc4c(c3)n(C)c(=O)n4C3CCC(=O)NC3=O)C[C@H]2C)cc1` (stereo partly shown) [Example 9], in assay [2], the IC50 turned out to be 69 nM. Moreover, on KRAS G12D, the Dmax was determined as 65% and the DC50 stood at 55 nM. For the same compound, the IC50 in assay [1] is 90 nM.

For `CO[C@@H](C)COc1nc(N(C)[C@@H]2CCNC2)c2cc(C3CC3)c(-c3c(C)c(F)cc4[nH]ncc34)c(OCc3ccc(C(=O)N4CCN(Cc5ccc6c(c5)n(C)c(=O)n6C5CCC(=O)NC5=O)C[C@@H]4C)cc3)c2n1` (stereo partly shown) [Example 35], the IC50 is 1510 nM in assay [2] and 1110 nM in assay [1]. Besides, the Dmax at KRAS G12D came to 48%. Further, the DC50 at KRAS G12D came out at 3670 nM.

Consider `Cc1c(F)cc2[nH]ncc2c1-c1c(C2CC2)cc2c(N3C[C@@H]4C[C@H]3CN4)nc(OC3CCOCC3)nc2c1OCc1ccc(C(=O)N2CCN(Cc3ccc4c(c3)cc(N3CCC(=O)NC3=O)c(=O)n4C)C[C@@H]2C)cc1` (atropisomer, axis not shown) [Example 46], for which, in assay [1], the IC50 was found to be 1280 nM.

With `CO[C@@H](C)COc1nc(N2CCNCC2)c2cc(C3CC3)c(-c3c(C)c(F)cc4[nH]ncc34)c(OCc3ccc(C(=O)N4CCN(Cc5ccc6c(c5)n(C)c(=O)n6C5CCC(=O)NC5=O)C[C@@H]4C)cc3)c2n1` (stereo partly shown) [Example 45], in assay [1], the IC50 came out at 162 nM.
